System: SARS-CoV-2 (Delta variant, pangolin linage B.1.617.2)
Experiment: microbe, parasite or virus in culture
Format: cell-based

Row | SMILES | Inhibition of SARS-CoV-2 infection in Calu-3 cells (0.01 µM) [%] | inhibition at 0.01 µM (Severe acute respiratory syndrome coronavirus 2, Calu-3, 24 h, read-out: Inhibition of SARS-CoV-2 infection in Calu-3 cells) [%]
1 | Cc1sc2c(c1C)C(c1ccc(Cl)cc1)=N[C@@H](CC(=O)OC(C)(C)C)c1nnc(C)n1-2 [JQ1] | 72 | –
2 | Cc1sc2c(c1C)C(c1ccc(Cl)cc1)=N[C@@H](CC(=O)Nc1ccc(O)cc1)c1nnc(C)n1-2 [OTX015] | – | 69
